{"source": "PubChem BioAssay (NCI)", "experiment_in_all_cases": "growth of human tumour cells (NCI), 48 h", "key": {"786-0 renal": {"test_system": "786-0 renal"}, "A498 renal": {"test_system": "A498 renal"}, "A549 NSCLC": {"test_system": "A549 NSCLC"}, "ACHN renal": {"test_system": "ACHN renal"}, "BT-549 breast": {"test_system": "BT-549 breast"}, "CAKI-1 renal": {"test_system": "CAKI-1 renal"}, "CCRF-CEM leukemia": {"test_system": "CCRF-CEM leukemia"}, "COLO 205 colon": {"test_system": "COLO 205 colon"}, "DLD-1 colon": {"test_system": "DLD-1 colon"}, "DMS 114 small cell lung": {"test_system": "DMS 114 small cell lung"}, "DMS 273 small cell lung": {"test_system": "DMS 273 small cell lung"}, "DU-145 prostate": {"test_system": "DU-145 prostate"}, "EKVX NSCLC": {"test_system": "EKVX NSCLC"}, "HCC-2998 colon": {"test_system": "HCC-2998 colon"}, "HCT-116 colon": {"test_system": "HCT-116 colon"}, "HCT-15 colon": {"test_system": "HCT-15 colon"}, "HL-60(TB) leukemia": {"test_system": "HL-60(TB) leukemia"}, "HOP-18 NSCLC": {"test_system": "HOP-18 NSCLC"}, "HOP-62 NSCLC": {"test_system": "HOP-62 NSCLC"}, "HOP-92 NSCLC": {"test_system": "HOP-92 NSCLC"}, "HS 578T breast": {"test_system": "HS 578T breast"}, "HT29 colon": {"test_system": "HT29 colon"}, "IGROV1 ovarian": {"test_system": "IGROV1 ovarian"}, "K-562 leukemia": {"test_system": "K-562 leukemia"}, "KM12 colon": {"test_system": "KM12 colon"}, "KM20L2 colon": {"test_system": "KM20L2 colon"}, "LOX IMVI melanoma": {"test_system": "LOX IMVI melanoma"}, "LXFL 529 NSCLC": {"test_system": "LXFL 529 NSCLC"}, "M14 melanoma": {"test_system": "M14 melanoma"}, "M19-MEL melanoma": {"test_system": "M19-MEL melanoma"}, "MALME-3M melanoma": {"test_system": "MALME-3M melanoma"}, "MDA-MB-231 breast": {"test_system": "MDA-MB-231 breast"}, "MDA-MB-435": {"test_system": "MDA-MB-435"}, "MDA-N": {"test_system": "MDA-N"}, "MOLT-4 leukemia": {"test_system": "MOLT-4 leukemia"}, "NCI-H226 lung": {"test_system": "NCI-H226 lung"}, "NCI-H23 lung": {"test_system": "NCI-H23 lung"}, "NCI-H460 lung": {"test_system": "NCI-H460 lung"}, "NCI-H522 lung": {"test_system": "NCI-H522 lung"}, "NCI/ADR-RES ovarian": {"test_system": "NCI/ADR-RES ovarian"}, "OVCAR-3 ovarian": {"test_system": "OVCAR-3 ovarian"}, "OVCAR-4 ovarian": {"test_system": "OVCAR-4 ovarian"}, "OVCAR-5 ovarian": {"test_system": "OVCAR-5 ovarian"}, "OVCAR-8 ovarian": {"test_system": "OVCAR-8 ovarian"}, "PC-3 prostate": {"test_system": "PC-3 prostate"}, "RPMI-8226 leukemia": {"test_system": "RPMI-8226 leukemia"}, "RXF 393 renal": {"test_system": "RXF 393 renal"}, "SF-268 CNS": {"test_system": "SF-268 CNS"}, "SF-295 CNS": {"test_system": "SF-295 CNS"}, "SF-539 CNS": {"test_system": "SF-539 CNS"}, "SK-MEL-2 melanoma": {"test_system": "SK-MEL-2 melanoma"}, "SK-MEL-28 melanoma": {"test_system": "SK-MEL-28 melanoma"}, "SK-MEL-5 melanoma": {"test_system": "SK-MEL-5 melanoma"}, "SK-OV-3 ovarian": {"test_system": "SK-OV-3 ovarian"}, "SN12C renal": {"test_system": "SN12C renal"}, "SNB-19 CNS": {"test_system": "SNB-19 CNS"}, "SNB-75 CNS": {"test_system": "SNB-75 CNS"}, "SNB-78 CNS": {"test_system": "SNB-78 CNS"}, "SR leukemia": {"test_system": "SR leukemia"}, "SW-620 colon": {"test_system": "SW-620 colon"}, "T-47D breast": {"test_system": "T-47D breast"}, "TK-10 renal": {"test_system": "TK-10 renal"}, "U251 CNS": {"test_system": "U251 CNS"}, "UACC-257 melanoma": {"test_system": "UACC-257 melanoma"}, "UACC-62 melanoma": {"test_system": "UACC-62 melanoma"}, "UO-31 renal": {"test_system": "UO-31 renal"}, "XF 498 CNS": {"test_system": "XF 498 CNS"}}, "note": "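The compound was tested at five concentrations on cells cultured in 96-well plates, with a 48-hour exposure period. Definition used: TGI = concentration required for complete inhibition of growth.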"}
{"smiles": "Cc1ccc2c(ccc(/C=C/c3ccc(O)c4ncccc34)[n+]2C)c1", "values": [{"measurement": "TGI", "setting": "786-0 renal", "value": 26.7, "unit": "µM"}, {"measurement": "TGI", "setting": "A498 renal", "value": 26.5, "unit": "µM"}, {"measurement": "TGI", "setting": "A549 NSCLC", "value": 44.1, "unit": "µM"}, {"measurement": "TGI", "setting": "ACHN renal", "value": 33.1, "unit": "µM"}, {"measurement": "TGI", "setting": "BT-549 breast", "value": "> 29", "unit": "µM"}, {"measurement": "TGI", "setting": "CAKI-1 renal", "value": 33.3, "unit": "µM"}, {"measurement": "TGI", "setting": "CCRF-CEM leukemia", "value": "> 70", "unit": "µM"}, {"measurement": "TGI", "setting": "COLO 205 colon", "value": 39.9, "unit": "µM"}, {"measurement": "TGI", "setting": "DLD-1 colon", "value": 38.3, "unit": "µM"}, {"measurement": "TGI", "setting": "DMS 114 small cell lung", "value": 4.28, "unit": "µM"}, {"measurement": "TGI", "setting": "DMS 273 small cell lung", "value": 17.2, "unit": "µM"}, {"measurement": "TGI", "setting": "DU-145 prostate", "value": "> 57.3", "unit": "µM"}, {"measurement": "TGI", "setting": "EKVX NSCLC", "value": 76.6, "unit": "µM"}, {"measurement": "TGI", "setting": "HCC-2998 colon", "value": 20.7, "unit": "µM"}, {"measurement": "TGI", "setting": "HCT-116 colon", "value": 24.3, "unit": "µM"}, {"measurement": "TGI", "setting": "HCT-15 colon", "value": "> 100", "unit": "µM"}, {"measurement": "TGI", "setting": "HL-60(TB) leukemia", "value": "> 100", "unit": "µM"}, {"measurement": "TGI", "setting": "HOP-18 NSCLC", "value": 26.4, "unit": "µM"}, {"measurement": "TGI", "setting": "HOP-62 NSCLC", "value": 32.9, "unit": "µM"}, {"measurement": "TGI", "setting": "HOP-92 NSCLC", "value": 31.1, "unit": "µM"}, {"measurement": "TGI", "setting": "HS 578T breast", "value": "> 100", "unit": "µM"}, {"measurement": "TGI", "setting": "HT29 colon", "value": 27.7, "unit": "µM"}, {"measurement": "TGI", "setting": "IGROV1 ovarian", "value": 45.6, "unit": "µM"}, {"measurement": "TGI", "setting": "K-562 leukemia", "value": 83.4, "unit": "µM"}, {"measurement": "TGI", "setting": "KM12 colon", "value": 33.3, "unit": "µM"}, {"measurement": "TGI", "setting": "KM20L2 colon", "value": 20.1, "unit": "µM"}, {"measurement": "TGI", "setting": "LOX IMVI melanoma", "value": 30.2, "unit": "µM"}, {"measurement": "TGI", "setting": "LXFL 529 NSCLC", "value": 19.7, "unit": "µM"}, {"measurement": "TGI", "setting": "M14 melanoma", "value": 40.3, "unit": "µM"}, {"measurement": "TGI", "setting": "M19-MEL melanoma", "value": 22.6, "unit": "µM"}, {"measurement": "TGI", "setting": "MALME-3M melanoma", "value": 31.4, "unit": "µM"}, {"measurement": "TGI", "setting": "MDA-MB-231 breast", "value": "> 61.8", "unit": "µM"}, {"measurement": "TGI", "setting": "MDA-MB-435", "value": "> 52.1", "unit": "µM"}, {"measurement": "TGI", "setting": "MDA-N", "value": "> 44.9", "unit": "µM"}, {"measurement": "TGI", "setting": "MOLT-4 leukemia", "value": "> 82.2", "unit": "µM"}, {"measurement": "TGI", "setting": "NCI-H226 lung", "value": 46.5, "unit": "µM"}, {"measurement": "TGI", "setting": "NCI-H23 lung", "value": 40.7, "unit": "µM"}, {"measurement": "TGI", "setting": "NCI-H460 lung", "value": 30.3, "unit": "µM"}, {"measurement": "TGI", "setting": "NCI-H522 lung", "value": 27.1, "unit": "µM"}, {"measurement": "TGI", "setting": "NCI/ADR-RES ovarian", "value": "> 100", "unit": "µM"}, {"measurement": "TGI", "setting": "OVCAR-3 ovarian", "value": 10.4, "unit": "µM"}, {"measurement": "TGI", "setting": "OVCAR-4 ovarian", "value": 33.6, "unit": "µM"}, {"measurement": "TGI", "setting": "OVCAR-5 ovarian", "value": 53.3, "unit": "µM"}, {"measurement": "TGI", "setting": "OVCAR-8 ovarian", "value": 24, "unit": "µM"}, {"measurement": "TGI", "setting": "PC-3 prostate", "value": "> 49.8", "unit": "µM"}, {"measurement": "TGI", "setting": "RPMI-8226 leukemia", "value": 70.2, "unit": "µM"}, {"measurement": "TGI", "setting": "RXF 393 renal", "value": 37.8, "unit": "µM"}, {"measurement": "TGI", "setting": "SF-268 CNS", "value": 22, "unit": "µM"}, {"measurement": "TGI", "setting": "SF-295 CNS", "value": 34.9, "unit": "µM"}, {"measurement": "TGI", "setting": "SF-539 CNS", "value": 23.1, "unit": "µM"}, {"measurement": "TGI", "setting": "SK-MEL-2 melanoma", "value": 36.3, "unit": "µM"}, {"measurement": "TGI", "setting": "SK-MEL-28 melanoma", "value": 33.1, "unit": "µM"}, {"measurement": "TGI", "setting": "SK-MEL-5 melanoma", "value": 35.3, "unit": "µM"}, {"measurement": "TGI", "setting": "SK-OV-3 ovarian", "value": 34.3, "unit": "µM"}, {"measurement": "TGI", "setting": "SN12C renal", "value": 35.6, "unit": "µM"}, {"measurement": "TGI", "setting": "SNB-19 CNS", "value": 36.9, "unit": "µM"}, {"measurement": "TGI", "setting": "SNB-75 CNS", "value": 43.7, "unit": "µM"}, {"measurement": "TGI", "setting": "SNB-78 CNS", "value": 27.5, "unit": "µM"}, {"measurement": "TGI", "setting": "SR leukemia", "value": "> 35.7", "unit": "µM"}, {"measurement": "TGI", "setting": "SW-620 colon", "value": 28.4, "unit": "µM"}, {"measurement": "TGI", "setting": "T-47D breast", "value": "> 32.1", "unit": "µM"}, {"measurement": "TGI", "setting": "TK-10 renal", "value": 38.9, "unit": "µM"}, {"measurement": "TGI", "setting": "U251 CNS", "value": 26.8, "unit": "µM"}, {"measurement": "TGI", "setting": "UACC-257 melanoma", "value": 24.2, "unit": "µM"}, {"measurement": "TGI", "setting": "UACC-62 melanoma", "value": 46.5, "unit": "µM"}, {"measurement": "TGI", "setting": "UO-31 renal", "value": "> 49.3", "unit": "µM"}, {"measurement": "TGI", "setting": "XF 498 CNS", "value": 16.8, "unit": "µM"}]}
